Test results published in patent US20150329558A1, “FUSED HETEROCYCLIC COMPOUNDS AS ION CHANNEL MODULATORS” (Gilead Sciences, Inc., priority 2011, published 2015).
Values joined by “and” are separate entries in the source; they are usually repeats but may differ in a detail not shown here. Equal values may be shown once.

What was measured:
[1] = Microsomal stability assay, dog; format: in vitro ADME; settings: metabolic stability, dog liver microsomes 0.5 mg/mL, substrate 3 uM
In short: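 Liver microsomes at 0.5 mg/mL protein in 100 mM KPO4 buffer, incubated with 3 uM compound and NADPH-regenerating system, run in duplicate. Samples taken at 2, 12, 25, 45 and 65 min and quenched in MeOH/ACN/water before analysis.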

hERG potassium channel = hERG potassium channel (Homo sapiens, UniProt Q12809); assay: hERG screening assay (PatchXpress, CHO cells); format: cell-based; settings: for HERG*: % inhibition at 1 μM
Chain of hERG potassium channel (Q12809 whole entry): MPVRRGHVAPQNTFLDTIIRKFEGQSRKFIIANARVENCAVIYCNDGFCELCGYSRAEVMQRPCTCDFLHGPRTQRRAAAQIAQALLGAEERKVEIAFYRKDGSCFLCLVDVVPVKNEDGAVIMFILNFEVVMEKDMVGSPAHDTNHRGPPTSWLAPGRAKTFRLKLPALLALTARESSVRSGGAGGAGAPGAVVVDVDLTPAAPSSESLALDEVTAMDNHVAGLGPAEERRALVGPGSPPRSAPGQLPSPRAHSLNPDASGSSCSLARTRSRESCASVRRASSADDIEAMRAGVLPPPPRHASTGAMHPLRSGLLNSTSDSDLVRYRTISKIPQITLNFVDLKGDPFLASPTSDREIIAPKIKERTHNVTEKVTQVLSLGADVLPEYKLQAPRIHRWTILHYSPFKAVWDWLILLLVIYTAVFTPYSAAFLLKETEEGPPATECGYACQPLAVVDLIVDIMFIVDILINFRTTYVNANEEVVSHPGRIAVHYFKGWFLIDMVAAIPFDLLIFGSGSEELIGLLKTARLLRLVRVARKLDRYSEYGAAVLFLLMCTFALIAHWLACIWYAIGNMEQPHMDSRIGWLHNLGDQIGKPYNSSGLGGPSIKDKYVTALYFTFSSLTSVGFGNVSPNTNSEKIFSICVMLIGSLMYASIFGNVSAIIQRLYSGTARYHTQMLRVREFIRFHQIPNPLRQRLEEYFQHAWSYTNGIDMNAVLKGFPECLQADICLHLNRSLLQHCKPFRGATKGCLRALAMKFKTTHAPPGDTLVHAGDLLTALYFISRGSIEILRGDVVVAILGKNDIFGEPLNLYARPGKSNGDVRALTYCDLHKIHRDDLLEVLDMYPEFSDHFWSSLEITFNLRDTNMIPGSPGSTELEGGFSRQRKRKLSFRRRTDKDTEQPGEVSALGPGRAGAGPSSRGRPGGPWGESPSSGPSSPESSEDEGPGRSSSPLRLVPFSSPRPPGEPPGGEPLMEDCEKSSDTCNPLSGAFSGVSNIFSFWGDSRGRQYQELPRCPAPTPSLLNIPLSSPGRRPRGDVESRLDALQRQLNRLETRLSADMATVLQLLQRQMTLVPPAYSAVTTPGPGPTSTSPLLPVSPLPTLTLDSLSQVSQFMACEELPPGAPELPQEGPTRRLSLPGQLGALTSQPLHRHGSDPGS
Description: Compounds were also tested for their effect to block the hERG K^+ channel.
Compounds were screened to test their activity in blocking the hERG potassium channel at AVIVA Biosciences (San Deigo, Calif., USA). The hERG channel is heterologously expressed in a CHO (Chinese Hamster Ovary) cell line. Cells were maintained with standard tissue culture procedures and stable channel expression was maintained with 500 μg/mL G418 in the culture medium. Cells were harvested for testing on the PatchXpress 7000A automated patch clamp with Accumax (Innovative Cell Technologies, San Diego, Calif.) to isolate single cells.
The following solutions were used for electrophysiological recordings. The external solution contained: 2 mM CaCl2; 2 mM MgCl2; 4 mM KCl; 150 mM NaCl; 10 mM Glucose; 10 mM HEPES (pH 7.4 with 1M NaOH; osmolarity, ˜310 mOsm). The internal solution contained: 140 mM KCl, 10 mM MgCl2, 6 mM EGTA, 5 mM HEPES, 5 mM ATP (pH adjusted to 7.25 with KOH; osmolarity, ˜295 mOsm).
hERG channels were activated when the voltage was first stepped to −50 mV for 300 ms from the −80 mV holding potential and then stepped to +20 mV for 5 seconds. At +20 mV the channels open and then largely inactivate, so the currents are relatively small. Upon returning to −50 mV from +20 mV, hERG currents transiently become much larger as inactivation is rapidly removed and then the channel closes. The first step to −50 mV for 300 ms was used as a baseline for measuring the peak amplitude during the step to −50 mV after channel activation. The peak tail current at −50 mV was measured both under control conditions and after addition of compound, each cell serving as its own control.
All compounds were prepared as 10 mM DMSO stocks in glass vials. Stock solutions were mixed by vigorous vortexing and sonication for about 2 minutes at room temperature. For testing, compounds were diluted in glass vials using an intermediate dilution step in pure DMSO and then further diluted to working concentrations in external solution. Dilutions were prepared no longer than 20 minutes before use.
For the electrophysiological recordings, after achieving the whole-cell configuration, cells were monitored for 90 seconds to assess stability and washed with external solution for 66 seconds. The voltage protocol described above was then applied to the cells every 12 seconds and throughout the whole procedure. Only cells with stable recording parameters and meeting specified health criteria were allowed to enter the compound addition procedure.
External solution containing 0.1% DMSO (vehicle) was applied to the cells first to establish the control peak current amplitude. After allowing the current to stabilize for 3 to 5 minutes, 1 μM and then 10 μM test compounds were applied. Each compound concentration was added 4 times and cells were kept in test solution until the effect of the compound reached steady state or for a maximum of 12 minutes. After addition of test compound, a positive control (1 μM Cisapride) was added and must block >95% of the current for the experiment to be considered valid. Washout in the external solution compartment was performed until the recovery of the current reached steady state.

hNav1.1 = biological target: T1, hNav1.1 (Homo sapiens, UniProt P35498); assay: Nav1.1 use-dependent block, whole-cell voltage clamp; format: cell-based; settings: use-dependent block 10 Hz, read-out: NAv1.1*-CHAN TEST-UDB-10 HZ-
T1 construct: expressed in transfected cells; host or cells: HEK293, transient transfection (α1:β1:β2 = 10:1:1)

With `Cc1noc(Cn2nnc3ccc(-c4ccc(OC(F)(F)F)cc4)cc3c2=O)n1` [II-3, 3-((3-methyl-1,2,4-oxadiazol-5-yl)methyl)-6-(4-(trifluoromethoxy)phenyl)benzo[d][1,2,3]triazin-4(3H)-one] the MS Dog THalf [1] was 303 min, the “HERG*” value (hERG potassium channel) was 15.5% and 16% and the inhibition at 10 µM (hERG potassium channel; human, CHO cells that heterologously express the hERG channel, pH 7.4, at 10 μM) was 24.5%. For the same molecule, the inhibition at 1 µM (hNav1.1) was -6%.
For `O=c1c2cc(-c3ccc(OC(F)(F)F)cc3)ccc2nnn1Cc1noc(C2CC2)n1` [II-14, 3-((5-cyclopropyl-1,2,4-oxadiazol-3-yl)methyl)-6-(4-(trifluoromethoxy)phenyl)benzo[d][1,2,3]triazin-4(3H)-one], the MS Dog THalf [1] was 284 min, the “HERG*” value (hERG potassium channel) was <10% and the inhibition at 1 µM (hNav1.1) was 19.5%.
For `O=c1c2cc(-c3ccc(OC(F)(F)F)cc3)ccc2nnn1CCc1ccncn1` [II-17, 3-(2-(pyrimidin-4-yl)ethyl)-6-(4-(trifluoromethoxy)phenyl)benzo[d][1,2,3]triazin-4(3H)-one], the MS Dog THalf [1] was 50 min and the “HERG*” value (hERG potassium channel) was 42%.
For `O=c1c2cc(-c3ccc(OC(F)(F)F)cc3)ccc2nnn1CCc1ncccn1` [II-18, 3-(2-(pyrimidin-2-yl)ethyl)-6-(4-(trifluoromethoxy)phenyl)benzo[d][1,2,3]triazin-4(3H)-one], the MS Dog THalf [1] was 74 min and the “HERG*” value (hERG potassium channel) was 30%.
In the case of `O=c1c2cc(-c3ccc(OC(F)(F)F)cc3)ccc2nnn1CCOc1ncccn1` [II-32, 3-(2-(pyrimidin-2-yloxy)ethyl)-6-(4-(trifluoromethoxy)phenyl)benzo[d][1,2,3]triazin-4(3H)-one], the MS Dog THalf [1] is reported as 36 min, the “HERG*” value (hERG potassium channel) is reported as 45% and the inhibition at 1 µM (hNav1.1) is reported as 21%.
In the case of `N#Cc1ccnc(OCCn2nnc3ccc(-c4ccc(OC(F)(F)F)cc4)cc3c2=O)n1` [II-36, 2-(2-(4-oxo-6-(4-(trifluoromethoxy)phenyl)benzo[d][1,2,3]triazin-3(4H)-yl)ethoxy)pyrimidine-4-carbonitrile], the MS Dog THalf [1] is reported as 124 min, the “HERG*” value (hERG potassium channel) is reported as 21% and the inhibition at 1 µM (hNav1.1) is reported as 7.9%.
For `O=c1c2cc(-c3ccc(OC(F)(F)F)cc3)ccc2nnn1C1CCNCC1` [II-38, 3-(piperidin-4-yl)-6-(4-(trifluoromethoxy)phenyl)benzo[d][1,2,3]triazin-4(3H)-one], the MS Dog THalf [1] was 68 min, the “HERG*” value (hERG potassium channel) was 58% and the inhibition at 1 µM (hNav1.1) was -1%.
For `O=c1c2cc(-c3ccc(OC(F)(F)F)cc3)ccc2nnn1CC1(CN2CCOCC2)CC1` [II-40, 3-((1-(morpholinomethyl)cyclopropyl)methyl)-6-(4-(trifluoromethoxy)phenyl)benzo[d][1,2,3]triazin-4(3H)-one], the MS Dog THalf [1] was 2 min and the “HERG*” value (hERG potassium channel) was 81%.
In the case of `O=c1c2cc(-c3ccc(OC(F)(F)F)cc3)ccc2nnn1Cc1noc(-c2ccccn2)n1` [II-54, 3-((5-(pyridin-2-yl)-1,2,4-oxadiazol-3-yl)methyl)-6-(4-(trifluoromethoxy)phenyl)benzo[d][1,2,3]triazin-4(3H)-one], the MS Dog THalf [1] is reported as 28 min and the “HERG*” value (hERG potassium channel) is reported as 23%.
In the case of `O=c1c2cc(-c3ccc(OC(F)(F)F)cc3)ccc2nnn1Cc1nnc(C2CC2)o1` [II-67, 3-((5-cyclopropyl-1,3,4-oxadiazol-2-yl)methyl)-6-(4-(trifluoromethoxy)phenyl)benzo[d][1,2,3]triazin-4(3H)-one], the MS Dog THalf [1] is reported as 270 min and the “HERG*” value (hERG potassium channel) is reported as 41%.
With `Cc1ncc(Cn2nnc3ccc(-c4ccc(OC(F)(F)F)cc4)cc3c2=O)o1` [II-95, 3-((2-methyloxazol-5-yl)methyl)-6-(4-(trifluoromethoxy)phenyl)benzo[d][1,2,3]triazin-4(3H)-one] the MS Dog THalf [1] was 169 min, the “HERG*” value (hERG potassium channel) was <10% and the inhibition at 1 µM (hNav1.1) was -0.5%.
For `O=c1c2cc(-c3ccc(OC(F)(F)F)cc3)ccc2cnn1Cc1ncccn1` [III-5, 2-(pyrimidin-2-ylmethyl)-7-(4-(trifluoromethoxy)phenyl)phthalazin-1(2H)-one], the MS Dog THalf [1] was 66 min, the “HERG*” value (hERG potassium channel) was 13% and the inhibition at 1 µM (hNav1.1) was 9.3%.
In the case of `O=c1c2cc(-c3ccc(OC(F)(F)F)cc3)ccc2cnn1CCn1cccn1` [III-9, 2-(2-(1H-pyrazol-1-yl)ethyl)-7-(4-(trifluoromethoxy)phenyl)phthalazin-1(2H)-one], the MS Dog THalf [1] is reported as 27 min, the “HERG*” value (hERG potassium channel) is reported as 37% and the inhibition at 1 µM (hNav1.1) is reported as 7.1%.
For `COc1cc(OC)nc(Cn2ncc3ccc(-c4ccc(OC(F)(F)F)cc4)cc3c2=O)n1` [III-19, 2-((4,6-dimethoxypyrimidin-2-yl)methyl)-7-(4-(trifluoromethoxy)phenyl)phthalazin-1 (2H)-one], the MS Dog THalf [1] was 129 min, the “HERG*” value (hERG potassium channel) was 23% and the inhibition at 1 µM (hNav1.1) was 19.3%.
In the case of `O=c1c2cc(-c3ccc(OC(F)(F)F)cc3)ccc2cnn1CCOc1ncccn1` [III-28, 2-(2-(pyrimidin-2-yloxy)ethyl)-7-(4-(trifluoromethoxy)phenyl)phthalazin-1 (2H)-one], the MS Dog THalf [1] is reported as 51 min, the “HERG*” value (hERG potassium channel) is reported as 51% and the inhibition at 1 µM (hNav1.1) is reported as 40.5%.
In the case of `Cc1noc(Cn2cnc3ccc(-c4ccc(OC(F)(F)F)cc4)cc3c2=O)n1` [IV-6, 3-((3-methyl-1,2,4-oxadiazol-5-yl)methyl)-6-(4-(trifluoromethoxy)phenyl)quinazolin-4(3H)-one], the MS Dog THalf [1] is reported as 158 min, the “HERG*” value (hERG potassium channel) is reported as <10% and the inhibition at 1 µM (hNav1.1) is reported as 3.1%.
For `Cc1nc(Cn2cnc3ccc(-c4ccc(OC(F)(F)F)cc4)cc3c2=O)no1` [IV-9, 3-((5-methyl-1,2,4-oxadiazol-3-yl)methyl)-6-(4-(trifluoromethoxy)phenyl)quinazolin-4(3H)-one], the MS Dog THalf [1] was 356 min, the “HERG*” value (hERG potassium channel) was <10% and the inhibition at 1 µM (hNav1.1) was -6.5%.
With `O=C1c2cc(-c3ccc(OC(F)(F)F)cc3)ccc2CCN1Cc1ncccn1` [IX-1, 2-(pyrimidin-2-ylmethyl)-7-(4-(trifluoromethoxy)phenyl)-3,4-dihydroisoquinolin-1(2H)-one] the MS Dog THalf [1] was 157 min, the “HERG*” value (hERG potassium channel) was 17% and the inhibition at 1 µM (hNav1.1) was -5.9%.
With `O=C1c2cc(-c3ccc(C(F)(F)F)cc3)ccc2CCN1Cc1ncccn1` [IX-3, 2-(pyrimidin-2-ylmethyl)-7-(4-(trifluoromethyl)phenyl)-3,4-dihydroisoquinolin-1(2H)-one] the MS Dog THalf [1] was 320 min, the “HERG*” value (hERG potassium channel) was 14% and the inhibition at 1 µM (hNav1.1) was 2.9%.
For `O=C(c1ncccn1)N1CCc2ccc(-c3ccc(C(F)(F)F)cc3)cc2C1` [IX-7, pyrimidin-2-yl(7-(4-(trifluoromethyl)phenyl)-3,4-dihydroisoquinolin-2(1H)-yl)methanone], the MS Dog THalf [1] was > 395 min, the “HERG*” value (hERG potassium channel) was <10% and the inhibition at 1 µM (hNav1.1) was 2.02%.
In the case of `O=C(c1cccnn1)N1CCc2ccc(-c3ccc(C(F)(F)F)cc3)cc2C1` [IX-17, Pyridazin-3-yl(7-(4-(trifluoromethyl)phenyl)-3,4-dihydroisoquinolin-2 (1H)-yl) methanone], the MS Dog THalf [1] is reported as > 395 min, the “HERG*” value (hERG potassium channel) is reported as 76% and the inhibition at 1 µM (hNav1.1) is reported as 1.5%.
For `Cn1cnc(C(=O)N2CCc3ccc(-c4ccc(C(F)(F)F)cc4)cc3C2)c1` [IX-39, (1-methyl-1H-imidazol-4-yl)(7-(4-(trifluoromethyl)phenyl)-3,4-dihydroisoquinolin-2(1H)-yl)methanone], the MS Dog THalf [1] was 256 min, the “HERG*” value (hERG potassium channel) was 35% and the inhibition at 1 µM (hNav1.1) was 1.5%.
In the case of `O=C1c2cc(-c3ccc(C(F)(F)F)cc3)ccc2OCN1Cc1ccccn1` [VIII-1, 3-(pyridin-2-ylmethyl)-6-(4-(trifluoromethyl)phenyl)-2H-benzo[e][1,3]oxazin-4(3H)-one], the MS Dog THalf [1] is reported as 210 min and the inhibition at 1 µM (hNav1.1) is reported as 4.4%.
For `O=C1c2cc(-c3ccc(OC(F)(F)F)cc3)ccc2OCN1Cc1ccccn1` [VIII-3, 3-(pyridin-2-ylmethyl)-6-(4-(trifluoromethoxy)phenyl)-2H-benzo[e][1,3]oxazin-4(3H)-one], the MS Dog THalf [1] was 164 min, the “HERG*” value (hERG potassium channel) was <10% and the inhibition at 1 µM (hNav1.1) was 3.1%.
With `O=C1c2cc(-c3ccc(OC(F)(F)F)cc3)ccc2OCN1Cc1ncccn1` [VIII-20, 3-(pyrimidin-2-ylmethyl)-6-(4-(trifluoromethoxy)phenyl)-2H-benzo[e][1,3]oxazin-4(3H)-one] the “HERG*” value (hERG potassium channel) was <10% and the inhibition at 1 µM (hNav1.1) was 11%.
